Measured values from ChEMBL document CHEMBL4725221, “Thiazoles, Their Benzofused Systems, and Thiazolidinone Derivatives: Versatile and Promising Tools to Combat Antibiotic Resistance” (J Med Chem, 2020).
≈ marks a conversion by molar mass, not a printed value.

Columns and labels:
Staphylococcus aureus [1] = experiment: Antibacterial activity against Staphylococcus aureus ATCC 25923 by CLSI protocol based microdilution method; type: functional, organism-based
Staphylococcus aureus [2] = experiment: Antibacterial activity against Staphylococcus aureus ATCC 6538 by CLSI protocol based microdilution method; type: functional, organism-based
Pseudomonas aeruginosa [3] = experiment: Antibacterial activity against Pseudomonas aeruginosa ATCC 15442 by CLSI protocol based cup-plate agar diffusion method; type: functional
Staphylococcus aureus [4] = experiment: Antibacterial activity against Staphylococcus aureus ATCC 29213 by NCCLS protocol based broth microdilution method; type: functional
Staphylococcus aureus [5] = experiment: Antibacterial activity against Staphylococcus aureus ATCC 29213 after 20 hrs by cup plate method; type: functional
Escherichia coli [6] = experiment: Antibacterial activity against Escherichia coli ATCC 25922 after 20 hrs by cup plate method; type: functional
Enterococcus faecalis [7] = experiment: Antibacterial activity against Enterococcus faecalis ATCC 19433 by NCCLS protocol based broth microdilution method
Staphylococcus aureus [8] = experiment: Antibacterial activity against Staphylococcus aureus MTCC 3160 after 24 hrs; type: functional
Bacillus subtilis [9] = experiment: Antibacterial activity against Bacillus subtilis MTCC 441 after 24 hrs; type: functional
Escherichia coli [10] = experiment: Antibacterial activity against Escherichia coli MTCC 443 after 24 hrs; type: functional
Staphylococcus aureus [11] = experiment: Antibacterial activity against Staphylococcus aureus; type: functional
Bacillus subtilis [12] = experiment: Antibacterial activity against Bacillus subtilis; type: functional
Pseudomonas aeruginosa [13] = experiment: Antibacterial activity against Pseudomonas aeruginosa; type: functional
Klebsiella pneumoniae = experiment: Antibacterial activity against Klebsiella pneumoniae; type: functional
Enterococcus faecalis [14] = experiment: Antibacterial activity against Enterococcus faecalis ATCC 29212 after 20 hrs by cup plate method; type: functional
Bacillus subtilis [15] = experiment: Antibacterial activity against Bacillus subtilis ATCC 10400 after 20 hrs by cup plate method; type: functional
Enterococcus faecalis [16] = experiment: Antibacterial activity against Enterococcus faecalis; type: functional
[17] = system: Staphylococcus saprophyticus; experiment: Antibacterial activity against Staphylococcus saprophyticus; type: functional
Enterococcus faecalis [18] = experiment: Antibiofilm activity against Enterococcus faecalis; type: functional
Staphylococcus aureus [19] = experiment: Antibacterial activity against methicillin resistant Staphylococcus aureus 090 by NCCLS protocol based broth microdilution method; type: functional
Staphylococcus aureus [20] = experiment: Antibacterial activity against Staphylococcus aureus MLS16; type: functional
Micrococcus luteus = experiment: Antibacterial activity against Micrococcus luteus; type: functional
Raoultella planticola = experiment: Antibacterial activity against Klebsiella planticola; type: functional
Escherichia coli [21] = experiment: Antibacterial activity against Escherichia coli; type: functional

## NCCn1cc(-c2nc(-c3c[nH]c4ccccc34)cs2)c2cc(F)ccc21
Staphylococcus aureus [1]
  IC50: 1.5 µg/mL (≈ 3.98 µM)
Staphylococcus aureus [2]
  IC50: 6.3 µg/mL (≈ 16.7 µM)
Pseudomonas aeruginosa [3]
  MIC: 4.5 µg/mL (≈ 12 µM)

## FC(F)(F)c1ccc2nc(S)sc2c1
Staphylococcus aureus [4]
  MIC: 3.12 µg/mL (≈ 13.3 µM)

## COc1ccc(-c2n[nH]c(N3C(=O)CS[C@H]3c3ccc(C)cc3)n2)cc1
Staphylococcus aureus [5]
  MIC: 64 µg/mL (≈ 175 µM)
Escherichia coli [6]
  MIC: 32 µg/mL (≈ 87.3 µM)

## Cl.Nc1ccc2sc(NC(=O)c3sc4ccccc4c3Cl)nc2c1
Enterococcus faecalis [7]
  MIC: 8 µg/mL

## O=C(CNC(=O)c1ccccc1)NN1C(=O)CSC1c1ccc(Br)cc1 (stereo unspecified)
Staphylococcus aureus [8]
  MIC: 6.51 µg/mL (≈ 15 µM)
Bacillus subtilis [9]
  MIC: 47.8 µg/mL (≈ 110 µM)
Escherichia coli [10]
  MIC: 12.2 µg/mL (≈ 28 µM)

## O=C(N[C@H](CO)[C@H](O)c1ccc([N+](=O)[O-])cc1)C(Cl)Cl [CHLORAMPHENICOL]
Staphylococcus aureus [11]
  MIC: 6.25 µg/mL (≈ 19.3 µM)
Bacillus subtilis [12]
  MIC: 6.25 µg/mL (≈ 19.3 µM)
Pseudomonas aeruginosa [13]
  MIC: 6.25 µg/mL (≈ 19.3 µM)
Klebsiella pneumoniae
  MIC: 12.5 µg/mL (≈ 38.7 µM)

## CCN(CC)c1ccc(C2SCC(=O)N2NC(=O)CNC(=O)c2ccccc2)cc1 (stereo unspecified)
Staphylococcus aureus [8]
  MIC: 12.4 µg/mL (≈ 29 µM)
Bacillus subtilis [9]
  MIC: 12.4 µg/mL (≈ 29 µM)
Escherichia coli [10]
  MIC: 3.07 µg/mL (≈ 7.2 µM)

## NCCn1cc(-c2nc(-c3c[nH]c4ccccc34)cs2)c2ccccc21
Staphylococcus aureus [1]
  IC50: 4.7 µg/mL (≈ 13.1 µM)
Staphylococcus aureus [2]
  IC50: 9.7 µg/mL (≈ 27.1 µM)
Pseudomonas aeruginosa [3]
  MIC: 22.7 µg/mL (≈ 63.3 µM)

## O=C(CNC(=O)c1ccccc1)NN1C(=O)CSC1c1ccccc1Cl (stereo unspecified)
Staphylococcus aureus [8]
  MIC: 12.5 µg/mL (≈ 32.1 µM)
Bacillus subtilis [9]
  MIC: 6.24 µg/mL (≈ 16 µM)
Escherichia coli [10]
  MIC: 6.24 µg/mL (≈ 16 µM)

## COc1ccc(-c2n[nH]c(N3C(=O)CS[C@H]3c3ccc([N+](=O)[O-])cc3)n2)cc1
Staphylococcus aureus [5]
  MIC: 16 µg/mL (≈ 40.3 µM)
Escherichia coli [6]
  MIC: 32 µg/mL (≈ 80.5 µM)

## COc1ccc(-c2n[nH]c(N3C(=O)CS[C@H]3c3ccc(Cl)cc3)n2)cc1
Staphylococcus aureus [5]
  MIC: 8 µg/mL (≈ 20.7 µM)
Enterococcus faecalis [14]
  MIC: 16 µg/mL (≈ 41.4 µM)
Bacillus subtilis [15]
  MIC: 16 µg/mL (≈ 41.4 µM)
Escherichia coli [6]
  MIC: 16 µg/mL (≈ 41.4 µM)

## COCCn1cc(-c2nc(-c3c[nH]c4ccccc34)cs2)c2cc(Br)ccc21
Staphylococcus aureus [1]
  IC50: 0.79 µg/mL (≈ 1.75 µM)
Staphylococcus aureus [2]
  IC50: 9.4 µg/mL (≈ 20.8 µM)
Pseudomonas aeruginosa [3]
  MIC: 4.4 µg/mL (≈ 9.73 µM)

## N#Cc1ccc(-c2csc(-c3cccc(-c4csc(-c5ccccc5)n4)c3)n2)cc1
Enterococcus faecalis [16]
  MIC: 62 µg/mL (≈ 147 µM)
[17]
  MIC: 16 µg/mL (≈ 38 µM)
Enterococcus faecalis [18]
  MBIC: 0.002 mg/mL

## COc1ccc(/C=N/Nc2nc3cccc(C)c3s2)c(OC)c1
Staphylococcus aureus [19]
  MIC: 22 µg/mL (≈ 67.2 µM)

## Cn1cc(-c2csc(-c3cn(CCN)c4ccc(F)cc34)n2)c2ccccc21
Staphylococcus aureus [1]
  IC50: 0.5 µg/mL (≈ 1.28 µM)
Staphylococcus aureus [2]
  IC50: 5.2 µg/mL (≈ 13.3 µM)
Pseudomonas aeruginosa [3]
  MIC: 3.9 µg/mL (≈ 9.99 µM)

## c1ccc(-c2csc(-c3cccc(-c4csc(-c5ccccc5)n4)c3)n2)cc1
Enterococcus faecalis [16]
  MIC: 125 µg/mL (≈ 315 µM)
[17]
  MIC: 32 µg/mL (≈ 80.7 µM)
Enterococcus faecalis [18]
  MBIC: 0.002 mg/mL

## Cl.Cl.Nc1ccc2sc(NC(=O)c3sc4cc(N)ccc4c3Cl)nc2c1
Enterococcus faecalis [7]
  MIC: 16 µg/mL

## Cl.Nc1ccc2c(Cl)c(C(=O)Nc3nc4ccccc4s3)sc2c1
Enterococcus faecalis [7]
  MIC: 16 µg/mL

## Cc1ccc(-c2csc(N/N=C/c3cn(-c4nc5ccccc5s4)nc3-c3cc4ccccc4oc3=O)n2)cc1
Staphylococcus aureus [11]
  MIC: 7.8 µg/mL (≈ 13.9 µM)
Bacillus subtilis [12]
  MIC: 1.9 µg/mL (≈ 3.39 µM)
Pseudomonas aeruginosa [13]
  MIC: 3.9 µg/mL (≈ 6.96 µM)
Staphylococcus aureus [20]
  MIC: 7.8 µg/mL (≈ 13.9 µM)
Micrococcus luteus
  MIC: 3.9 µg/mL (≈ 6.96 µM)
Raoultella planticola
  MIC: 3.9 µg/mL (≈ 6.96 µM)
Escherichia coli [21]
  MIC: 7.8 µg/mL (≈ 13.9 µM)

## O=[N+]([O-])c1ccc(-c2cc(-c3cc4ccccc4[nH]3)n(-c3nc(-c4ccc(F)cc4)cs3)n2)cc1
Staphylococcus aureus [11]
  MIC: 25 µg/mL (≈ 51.9 µM)
Bacillus subtilis [12]
  MIC: 25 µg/mL (≈ 51.9 µM)
Pseudomonas aeruginosa [13]
  MIC: 6.25 µg/mL (≈ 13 µM)
Klebsiella pneumoniae
  MIC: 12.5 µg/mL (≈ 26 µM)

## O=[N+]([O-])c1ccc2nc(S)sc2c1
Staphylococcus aureus [4]
  MIC: 12.5 µg/mL (≈ 58.9 µM)

## O=C(CNC(=O)c1ccccc1)NN1C(=O)CSC1c1cccc([N+](=O)[O-])c1 (stereo unspecified)
Staphylococcus aureus [8]
  MIC: 25.2 µg/mL (≈ 63 µM)
Bacillus subtilis [9]
  MIC: 12.4 µg/mL (≈ 31 µM)
Escherichia coli [10]
  MIC: 25.2 µg/mL (≈ 63 µM)

## Cc1cccc2nc(N/N=C/c3ccc(O)cc3O)sc12
Staphylococcus aureus [19]
  MIC: 20 µg/mL (≈ 66.8 µM)

## NCCn1cc(-c2nc(-c3c[nH]c4ccccc34)cs2)c2cc(Br)ccc21
Staphylococcus aureus [1]
  IC50: 4.4 µg/mL (≈ 10.1 µM)
Staphylococcus aureus [2]
  IC50: 3.3 µg/mL (≈ 7.55 µM)
Pseudomonas aeruginosa [3]
  MIC: 7.8 µg/mL (≈ 17.8 µM)

## Clc1ccc(-c2csc(-c3cccc(-c4csc(-c5ccccc5)n4)c3)n2)cc1
Enterococcus faecalis [16]
  MIC: 32 µg/mL (≈ 74.2 µM)
[17]
  MIC: 2 µg/mL (≈ 4.64 µM)
Enterococcus faecalis [18]
  MBIC: 0.016 mg/mL

## COc1ccc(-c2n[nH]c(N3C(=O)CS[C@H]3c3ccc(F)cc3)n2)cc1
Staphylococcus aureus [5]
  MIC: 128 µg/mL (≈ 346 µM)
Escherichia coli [6]
  MIC: 64 µg/mL (≈ 173 µM)

## COc1ccc(-c2csc(-c3cccc(-c4csc(-c5ccccc5)n4)c3)n2)cc1
Enterococcus faecalis [16]
  MIC: 62 µg/mL (≈ 145 µM)
[17]
  MIC: 125 µg/mL (≈ 293 µM)
Enterococcus faecalis [18]
  MBIC: 0.004 mg/mL

## COc1ccc(-c2n[nH]c(N3C(=O)CS[C@H]3c3ccc(OC)cc3)n2)cc1
Staphylococcus aureus [5]
  MIC: 128 µg/mL (≈ 335 µM)
Escherichia coli [6]
  MIC: 6 µg/mL (≈ 15.7 µM)

## Cc1ccc(C2SCC(=O)N2NC(=O)CNC(=O)c2ccccc2)cc1 (stereo unspecified)
Staphylococcus aureus [8]
  MIC: 12.6 µg/mL (≈ 34 µM)
Bacillus subtilis [9]
  MIC: 12.6 µg/mL (≈ 34 µM)
Escherichia coli [10]
  MIC: 12.6 µg/mL (≈ 34 µM)

## COCCn1cc(-c2nc(-c3cn(C)c4ccccc34)cs2)c2cc(Br)ccc21
Staphylococcus aureus [1]
  IC50: 0.95 µg/mL (≈ 2.04 µM)
Staphylococcus aureus [2]
  IC50: 11.2 µg/mL (≈ 24 µM)
Pseudomonas aeruginosa [3]
  MIC: 19.1 µg/mL (≈ 41 µM)

## O=C(Nc1nc2ccccc2s1)c1sc2cc([N+](=O)[O-])ccc2c1Cl
Enterococcus faecalis [7]
  MIC: 16 µg/mL (≈ 41 µM)

## Fc1ccc(-c2csc(-n3nc(-c4ccc(F)cc4)cc3-c3cc4ccccc4[nH]3)n2)cc1
Staphylococcus aureus [11]
  MIC: 50 µg/mL (≈ 110 µM)
Bacillus subtilis [12]
  MIC: 50 µg/mL (≈ 110 µM)
Pseudomonas aeruginosa [13]
  MIC: 25 µg/mL (≈ 55 µM)
Klebsiella pneumoniae
  MIC: 25 µg/mL (≈ 55 µM)

## O=[N+]([O-])c1ccc(-c2csc(-c3cccc(-c4csc(-c5ccccc5)n4)c3)n2)cc1
Enterococcus faecalis [16]
  MIC: 62 µg/mL (≈ 140 µM)
[17]
  MIC: 32 µg/mL (≈ 72.5 µM)
Enterococcus faecalis [18]
  MBIC: 0.002 mg/mL

## Nc1ccc2c(Cl)c(C(=O)Nc3nc4ccccc4s3)sc2c1
Enterococcus faecalis [7]
  MIC: 8 µg/mL (≈ 22.2 µM)

## O=c1oc2c(Br)cccc2cc1-c1csc(N/N=C/c2cn(-c3nc4ccccc4s3)nc2-c2cc3ccccc3oc2=O)n1
Staphylococcus aureus [11]
  MIC: 7.8 µg/mL (≈ 11.2 µM)
Bacillus subtilis [12]
  MIC: 3.9 µg/mL (≈ 5.62 µM)
Pseudomonas aeruginosa [13]
  MIC: 7.8 µg/mL (≈ 11.2 µM)
Staphylococcus aureus [20]
  MIC: 7.8 µg/mL (≈ 11.2 µM)
Micrococcus luteus
  MIC: 7.8 µg/mL (≈ 11.2 µM)
Raoultella planticola
  MIC: 7.8 µg/mL (≈ 11.2 µM)
Escherichia coli [21]
  MIC: 7.8 µg/mL (≈ 11.2 µM)

## Cc1cccc2nc(N/N=C/c3cc(O)c(O)c(O)c3)sc12
Staphylococcus aureus [19]
  MIC: 18 µg/mL (≈ 57.1 µM)

## O=c1oc2ccc3ccccc3c2cc1-c1csc(N/N=C/c2cn(-c3nc4ccccc4s3)nc2-c2cc3ccccc3oc2=O)n1
Staphylococcus aureus [11]
  MIC: 7.8 µg/mL (≈ 11.7 µM)
Bacillus subtilis [12]
  MIC: 15.6 µg/mL (≈ 23.5 µM)
Pseudomonas aeruginosa [13]
  MIC: > 125 µg/mL
Staphylococcus aureus [20]
  MIC: 7.8 µg/mL (≈ 11.7 µM)
Micrococcus luteus
  MIC: > 125 µg/mL
Raoultella planticola
  MIC: 7.8 µg/mL (≈ 11.7 µM)
Escherichia coli [21]
  MIC: 7.8 µg/mL (≈ 11.7 µM)

## Cc1sc(-c2cccc(-c3csc(-c4ccccc4)n3)c2)nc1-c1ccccc1
Enterococcus faecalis [16]
  MIC: 250 µg/mL (≈ 609 µM)
[17]
  MIC: > 1000 µg/mL
Enterococcus faecalis [18]
  MBIC: 0.004 mg/mL
